A word on the IC50: it is the concentration that gives 50% inhibition.

The values below come from US10577363B2, “Substituted piperidine compounds” (EPIZYME, INC., priority 2014, dated 2020).

The target of assay [1] is T1, SMYD3 (Homo sapiens (Human), UniProt Q9H7B4). Briefly: SMYD3 biochemical assay (SPA, 3H-SAM methylation of MEKK2 protein substrate). The conditions noted are these: read-out: SMYD3 Biochem IC50. A digest of the protocol:
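Native full-length human SMYD3 (E. coli-expressed, tags removed) was preincubated with compound for 30 min at room temperature in 25 mM Tris-Cl pH 8.0, 1 mM TCEP, 0.005% BSG, 0.005% Tween 20. Reaction was started with 3H-SAM plus GST-MEKK2, quenched with 100 uM unlabeled SAM, and read by SPA scintillation counting.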

Assay [2] deals with T1, SMYD3. In words: SMYD3 cell assay (Trimethyl-MEKK2 In-Cell Western in 293T/17 cells). It is filed as cell-based. The conditions noted are these: read-out: SMYD3 Cell IC50. A digest of the protocol: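 In-Cell Western ratio of trimethyl-Lys260 MEKK2 to anti-flag signal; percent inhibition from DMSO and maximum-inhibition controls, IC50 by non-linear regression, triplicates.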

T1 sequence (Q9H7B4 whole entry): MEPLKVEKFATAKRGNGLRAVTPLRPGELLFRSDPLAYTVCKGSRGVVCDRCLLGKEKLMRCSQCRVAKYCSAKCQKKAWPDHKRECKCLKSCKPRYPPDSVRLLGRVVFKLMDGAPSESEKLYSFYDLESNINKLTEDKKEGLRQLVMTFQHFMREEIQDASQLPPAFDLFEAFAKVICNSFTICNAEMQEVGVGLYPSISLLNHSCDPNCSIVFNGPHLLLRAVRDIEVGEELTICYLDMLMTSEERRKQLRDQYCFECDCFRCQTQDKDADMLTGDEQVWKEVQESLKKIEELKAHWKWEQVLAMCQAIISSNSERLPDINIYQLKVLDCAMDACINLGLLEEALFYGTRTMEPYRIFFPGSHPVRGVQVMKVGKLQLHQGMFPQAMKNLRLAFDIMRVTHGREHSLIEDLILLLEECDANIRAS

Regarding `CN(C)CCN(C)CCS(=O)(=O)N1[C@@H]2CC[C@H]1C[C@@H](NC(=O)c1cc(C3CC3)on1)C2` [compound 603, 5-cyclopropyl-N-((1R,3r,5S)-8-((2-((2-(dimethylamino)ethyl)(methyl)amino)ethyl)sulfonyl)-8-azabicyclo[3.2.1]octan-3-yl)isoxazole-3-carboxamide], the results for the IC50 on SMYD3 [1] (Table 2A) and on SMYD3 [2] (Table 2A) were 0.0147 µM and 0.239 µM, respectively.

For the compound `COCCNCCCS(=O)(=O)N1[C@@H]2CC[C@H]1C[C@@H](NC(=O)c1cc(C3CC3)on1)C2` [compound 604, 5-cyclopropyl-N-((1R,3r,5S)-8-((3-((2-methoxyethyl)amino)propyl)sulfonyl)-8-azabicyclo[3.2.1]octan-3-yl)isoxazole-3-carboxamide], the IC50 on SMYD3 [1] (Table 2A) was found to be 0.0162 µM; at SMYD3 [2] (Table 2A), 0.2 µM.

Turning to `CNCCNCCS(=O)(=O)N1[C@@H]2CC[C@H]1C[C@@H](NC(=O)c1cc(C3CC3)on1)C2` [compound 605, 5-cyclopropyl-N-((1R,3r,5S)-8-((2-((2-(methylamino)ethyl)amino)ethyl)sulfonyl)-8-azabicyclo[3.2.1]octan-3-yl)isoxazole-3-carboxamide], the values for the IC50 on SMYD3 [1] (Table 2A) and at SMYD3 [2] (Table 2A) were 0.0175 µM and 0.302 µM, respectively.

With `CN1CCC(N(C)S(=O)(=O)N2[C@@H]3CC[C@H]2C[C@@H](NC(=O)c2cc(C4CC4)on2)C3)CC1` [compound 606, 5-cyclopropyl-N-((1R,3r,5S)-8-(N-methyl-N-(1-methylpiperidin-4-yl)sulfamoyl)-8-azabicyclo[3.2.1]octan-3-yl)isoxazole-3-carboxamide], the values for the IC50 at SMYD3 [1] (Table 2A) and at SMYD3 [2] (Table 2A) were 0.0177 µM and 0.235 µM, respectively.

`CC(C)N1CCC(CS(=O)(=O)N2CC[C@@H](NC(=O)c3cc(C4CC4)on3)C[C@H]2C)CC1` [compound 607, 5-cyclopropyl-N-((2R,4R)-1-(((1-isopropylpiperidin-4-yl)methyl)sulfonyl)-2-methylpiperidin-4-yl)isoxazole-3-carboxamide]: the half-maximal inhibitory concentration (IC50) at SMYD3 [1] (Table 2A) stood at 0.0178 µM; at SMYD3 [2] (Table 2A) it was 1.17 µM.

Take `C[C@H]1CN(S(=O)(=O)CC2CCN(CCCO)CC2)CC[C@H]1NC(=O)c1cc(C2CC2)on1` [compound 608, 5-cyclopropyl-N-((3S,4R)-1-(((1-(3-hydroxypropyl)piperidin-4-yl)methyl)sulfonyl)-3-methylpiperidin-4-yl)isoxazole-3-carboxamide]: the 50% inhibitory concentration (IC50) amounted to 0.0178 µM on SMYD3 [1] (Table 2A) and 0.225 µM at SMYD3 [2] (Table 2A).

As to `C[C@H]1C[C@@H](NC(=O)c2cc(C3CC3)on2)CCN1S(=O)(=O)CCCNCc1cccc(C(F)(F)F)c1` [compound 609, 5-cyclopropyl-N-((2S,4S)-2-methyl-1-((3-((3-(trifluoromethyl)benzyl)amino)propyl)sulfonyl)piperidin-4-yl)isoxazole-3-carboxamide], the results for the concentration for half-maximal inhibition (IC50) on SMYD3 [1] (Table 2A) and at SMYD3 [2] (Table 2A) were 0.0188 µM and 0.451 µM, respectively.

With `CN(C)CCN(C)CCCS(=O)(=O)N1[C@@H]2CC[C@H]1C[C@@H](NC(=O)c1cc(C3CC3)on1)C2` [compound 610, 5-cyclopropyl-N-((1R,3r,5S)-8-((3-((2-(dimethylamino)ethyl)(methyl)amino)propyl)sulfonyl)-8-azabicyclo[3.2.1]octan-3-yl)isoxazole-3-carboxamide], the IC50 was determined as 0.0194 µM on SMYD3 [1] (Table 2A) and 0.332 µM on SMYD3 [2] (Table 2A).

With `CC(C)CN1CCC(CS(=O)(=O)N2CC[C@@H](NC(=O)c3cc(C4CC4)on3)C[C@H]2C)CC1` [compound 611, 5-cyclopropyl-N-((2R,4R)-1-(((1-isobutylpiperidin-4-yl)methyl)sulfonyl)-2-methylpiperidin-4-yl)isoxazole-3-carboxamide], the values for the IC50 on SMYD3 [1] (Table 2A) and on SMYD3 [2] (Table 2A) were 0.02 µM and 1.03 µM, respectively.

Turning to `C[C@H]1C[C@@H](NC(=O)c2cc(C3CC3)on2)CCN1S(=O)(=O)CCCNCC1CCCCC1` [compound 612, N-((2S,4S)-1-((3-((cyclohexylmethyl)amino)propyl)sulfonyl)-2-methylpiperidin-4-yl)-5-cyclopropylisoxazole-3-carboxamide], the figures for the IC50 on SMYD3 [1] (Table 2A) and on SMYD3 [2] (Table 2A) were 0.0207 µM and 0.217 µM, respectively.

In the case of `C[C@H]1CN(S(=O)(=O)CC2CCN(CCCC(F)(F)F)CC2)CC[C@H]1NC(=O)c1cc(C2CC2)on1` [compound 613, 5-cyclopropyl-N-((3S,4R)-3-methyl-1-(((1-(4,4,4-trifluorobutyl)piperidin-4-yl)methyl)sulfonyl)piperidin-4-yl)isoxazole-3-carboxamide], the half-inhibitory concentration (IC50) on SMYD3 [1] (Table 2A) is 0.0209 µM; at SMYD3 [2] (Table 2A), 0.212 µM.

With `C[C@H]1CN(S(=O)(=O)N2CCC(NCc3ccccc3)CC2)CC[C@H]1NC(=O)c1cc(C2CC2)on1` [compound 614, N-((3S,4R)-1-((4-(benzylamino)piperidin-1-yl)sulfonyl)-3-methylpiperidin-4-yl)-5-cyclopropylisoxazole-3-carboxamide], the IC50 came to 0.0212 µM on SMYD3 [1] (Table 2A) and 0.304 µM on SMYD3 [2] (Table 2A).

As to `C[C@H]1C[C@@H](NC(=O)c2cc(C3CC3)on2)CCN1S(=O)(=O)N1C2CCC1CNC2` [compound 615, N-((2S,4S)-1-((3,8-diazabicyclo[3.2.1]octan-8-yl)sulfonyl)-2-methylpiperidin-4-yl)-5-cyclopropylisoxazole-3-carboxamide], the results for the 50% inhibitory concentration (IC50) at SMYD3 [1] (Table 2A) and on SMYD3 [2] (Table 2A) were 0.0217 µM and 0.233 µM, respectively.

Consider `C[C@@H]1C[C@H](NC(=O)c2cc(C3CC3)on2)CCN1C(=O)c1ccc(C2CCCNC2)cc1` (stereo partly drawn) [compound 616, 5-cyclopropyl-N-((2R,4R)-2-methyl-1-(4-(piperidin-3-yl)benzoyl)piperidin-4-yl)isoxazole-3-carboxamide], for which the IC50 at SMYD3 [1] (Table 2A) worked out at 0.0219 µM; on SMYD3 [2] (Table 2A), 0.595 µM.

`CCN1CCN(S(=O)(=O)N2CC[C@H](NC(=O)c3cc(C4CC4)on3)C[C@@H]2C)CC1` [compound 617, 5-cyclopropyl-N-((2S,4S)-1-((4-ethylpiperazin-1-yl)sulfonyl)-2-methylpiperidin-4-yl)isoxazole-3-carboxamide]: the IC50 at SMYD3 [1] (Table 2A) is 0.0228 µM; at SMYD3 [2] (Table 2A) it was 0.183 µM.

Take `C[C@H]1CN(S(=O)(=O)CC2CCNCC2)CC[C@H]1NC(=O)c1cc(C2CC2)on1` [compound 618, 5-cyclopropyl-N-((3S,4R)-3-methyl-1-((piperidin-4-ylmethyl)sulfonyl)piperidin-4-yl)isoxazole-3-carboxamide]: the IC50 is 0.0232 µM on SMYD3 [1] (Table 2A) and 0.22 µM at SMYD3 [2] (Table 2A).

As to `O=C(N[C@H]1C[C@H]2CC[C@@H](C1)N2S(=O)(=O)CC1CCN(CCN2CCOCC2)CC1)c1cc(C2CC2)on1` [compound 619, 5-cyclopropyl-N-((1R,3r,5S)-8-(((1-(2-morpholinoethyl)piperidin-4-yl)methyl)sulfonyl)-8-azabicyclo[3.2.1]octan-3-yl)isoxazole-3-carboxamide], the half-inhibitory concentration (IC50) on SMYD3 [1] (Table 2A) turned out to be 0.0232 µM; at SMYD3 [2] (Table 2A), 0.592 µM.

For the compound `CNCCN(C)CCS(=O)(=O)N1[C@@H]2CC[C@H]1C[C@@H](NC(=O)c1cc(C3CC3)on1)C2` [compound 620, 5-cyclopropyl-N-((1R,3r,5S)-8-((2-(methyl(2-(methylamino)ethyl)amino)ethyl)sulfonyl)-8-azabicyclo[3.2.1]octan-3-yl)isoxazole-3-carboxamide], the results for the IC50 on SMYD3 [1] (Table 2A) and at SMYD3 [2] (Table 2A) were 0.0233 µM and 0.339 µM, respectively.

In the case of `C[C@H]1CN(S(=O)(=O)N2CCNCC2)CC[C@H]1NC(=O)c1cc(C2CC2)on1` [compound 621, 5-cyclopropyl-N-((3S,4R)-3-methyl-1-(piperazin-1-ylsulfonyl)piperidin-4-yl)isoxazole-3-carboxamide], the concentration for half-maximal inhibition (IC50) on SMYD3 [1] (Table 2A) was 0.0234 µM; at SMYD3 [2] (Table 2A), 0.223 µM.

Take `CNCCN(C)CCCS(=O)(=O)N1[C@@H]2CC[C@H]1C[C@@H](NC(=O)c1cc(C3CC3)on1)C2` [compound 622, 5-cyclopropyl-N-((1R,3r,5S)-8-((3-(methyl(2-(methylamino)ethyl)amino)propyl)sulfonyl)-8-azabicyclo[3.2.1]octan-3-yl)isoxazole-3-carboxamide]: the IC50 was 0.0234 µM on SMYD3 [1] (Table 2A) and 0.464 µM at SMYD3 [2] (Table 2A).

As to `C[C@H]1CN(S(=O)(=O)CC2CCN(CCO)CC2)CC[C@H]1NC(=O)c1cc(C2CC2)on1` [compound 623, 5-cyclopropyl-N-((3S,4R)-1-(((1-(2-hydroxyethyl)piperidin-4-yl)methyl)sulfonyl)-3-methylpiperidin-4-yl)isoxazole-3-carboxamide], the concentration for half-maximal inhibition (IC50) on SMYD3 [1] (Table 2A) turned out to be 0.0237 µM; at SMYD3 [2] (Table 2A), 0.231 µM.

For the compound `C[C@H]1CNCCN1S(=O)(=O)N1CC[C@H](NC(=O)c2cc(C3CC3)on2)C[C@@H]1C` [compound 624, 5-cyclopropyl-N-((2S,4S)-2-methyl-1-(((S)-2-methylpiperazin-1-yl)sulfonyl)piperidin-4-yl)isoxazole-3-carboxamide], the 50% inhibitory concentration (IC50) at SMYD3 [1] (Table 2A) is 0.0246 µM; at SMYD3 [2] (Table 2A), 0.284 µM.

With `C[C@H]1CN(S(=O)(=O)CC2CCN(C)CC2)CC[C@H]1NC(=O)c1cc(C2CC2)on1` [compound 625, 5-cyclopropyl-N-((3S,4R)-3-methyl-1-(((1-methylpiperidin-4-yl)methyl)sulfonyl)piperidin-4-yl)isoxazole-3-carboxamide], the values for the IC50 at SMYD3 [1] (Table 2A) and on SMYD3 [2] (Table 2A) were 0.0253 µM and 0.224 µM, respectively.

Take `C[C@H]1C[C@@H](NC(=O)c2cc(C3CC3)on2)CCN1S(=O)(=O)N1C[C@H]2C[C@@H]1CN2C` [compound 626, 5-cyclopropyl-N-((2S,4S)-2-methyl-1-(((1R,4R)-5-methyl-2,5-diazabicyclo[2.2.1]heptan-2-yl)sulfonyl)piperidin-4-yl)isoxazole-3-carboxamide]: the results for the IC50 at SMYD3 [1] (Table 2A) and at SMYD3 [2] (Table 2A) were 0.0253 µM and 0.157 µM, respectively.

For `C[C@H]1CN(S(=O)(=O)c2ccc(C(C)(C)N)cc2)CC[C@H]1NC(=O)c1cc(C2CC2)on1` [compound 627, N-((3S,4R)-1-((4-(2-aminopropan-2-yl)phenyl)sulfonyl)-3-methylpiperidin-4-yl)-5-cyclopropylisoxazole-3-carboxamide], the concentration for half-maximal inhibition (IC50) came out at 0.0265 µM on SMYD3 [1] (average of n = 1 to n = 50) and 0.243 µM on SMYD3 [2] (average of n = 1 to n = 50).
